Data reported in patent US7615638B2, “Synthesis of grossularines-1 and analogs thereof and method of use” (City of Hope, priority 2006, dated 2009).
pIC50: −log10 of the molar value. Where two headings read alike, the source gives them in different places.

System: DU145 human prostate cancer cells
Assay: MTS viability assay in DU145 human prostate cancer cells
Conditions: for cell viability (cytotoxicity), initial screening: 30 μM compound, DU145 cells (FIG. 8); for pIC50: read-out: IC50 (cell viability)
[1] = 0.1 to 20 μM, 48 h, MTS, DU145 cells (FIGS. 9-12)

Method: An MTS assay is a colorimetric experimental method to determine the number of viable cells in cytotoxicity assays and utilizes 3-(4,5-dimethylthiazol-2-yl)-5-(3-carboxymethoxyphenyl)-2-(4-sulfophenyl)-2H-tetrazolium, inner salt (MTS).
The experimental setup was as follows: DU145 human prostate cancer cells were obtained from ATCC and cultured in RPMI-1640 medium containing 10% fetal bovine serum (FBS), 100 units/ml of penicillin, and 100 μg/ml streptomycin. All cells were maintained in a 5% CO2 atmosphere at 37° C. To determine the viability of the cells, MTS assays were performed as described by the supplier (Promega; Madison, Wis.). Briefly, cells (5,000/well) were seeded in 96-well plates and incubated overnight at 37° C. in 5% CO2. Cells were treated for 48 h with 30 μM of each compound for initial screenings.
MTS dye was added to each well for 1 h. Cell viability was determined by tetrazolium conversion to its formazan dye and absorbance of formazan was measured at 490 nm. Values are the mean ±SD. Each experiment was performed in quadruplicate.
Dimethyl sulfoxide (DMSO) was used as the vehicle control. MTS dye was added to each 96-well plate well for one hour. Cell viability was determined by tetrazolium conversion to its formazan dye and absorbance of formazan was measured at 490 nm using an automated ELISA plate reader. The production of formazan dye was directly proportional to the number of living cells.
DU145 cells (5,000 cells/each well) were treated in dose-dependent manner for 48 h. Then, MTS assay was performed with four samples for each experiment.

## N,N-didesmethylgrossularine-1 [Compound 2]
48 h, MTS
  cell viability (cytotoxicity), initial screening: complete loss of cell viability
[1]
  pIC50: 5.14

## grossularine-1 [Compound 1]
48 h, MTS
  cell viability (cytotoxicity), initial screening: complete loss of cell viability
[1]
  pIC50: 4.99

## CN(C)c1nc2c([nH]1)c(C(=N)c1c[nH]c3ccccc13)nc1[nH]c3ccccc3c12 [Compound 8]
Homo sapiens, DU-145, 48 h
  pIC50: 5.74
